Results published in patent EP3057950B1, “PHENYL LINKED QUINOLINYL MODULATORS OF ROR-GAMMA-T” (Janssen Pharmaceutica NV, priority 2013, dated 2015).
Structures can show the parent of a compound that is named as a salt. Where two headings read alike, the source gives them in different places.

How the values were obtained:
[1] = target: T1, wild type human RORγt ligand binding domain (RORγt LBD) (Homo sapiens, UniProt P51449); experiment: RORγt ThermoFluor® Assay (thermal shift, binding affinity); details: pH 7.0, estimated from concentration response curves
T1 construct: His-tag (N); TurboTEV protease cleavage site (ENLYFQG) (N); made in house; host or cells: E. coli (pHIS1, modified pET expression vector)
T1 sequence (P51449 269-508 limits assumed): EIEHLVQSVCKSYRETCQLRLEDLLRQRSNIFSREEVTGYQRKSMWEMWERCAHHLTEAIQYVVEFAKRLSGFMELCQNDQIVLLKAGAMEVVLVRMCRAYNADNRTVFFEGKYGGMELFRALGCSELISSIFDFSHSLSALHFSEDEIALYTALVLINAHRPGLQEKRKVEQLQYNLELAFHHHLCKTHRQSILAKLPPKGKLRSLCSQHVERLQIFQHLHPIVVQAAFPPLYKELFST
Method: This approach is applicable to a wide variety of systems, and rigorous in theoretical interpretation through quantitation of equilibrium binding constants (KD).
The shift in the melting point described as a ΔTm is proportional to the concentration and affinity of the ligand.
Protein and compound solutions are dispensed into black 384-well polypropylene PCR microplates (Abgene) and overlayed with silicone oil (1 µL, Fluka, type DC 200) to prevent evaporation.
Bar-coded assay plates are robotically loaded onto a thermostatically controlled PCR-type thermal block and then heated at a typical ramp-rate of 1 °C/min for all experiments. Fluorescence was measured by continuous illumination with UV light (Hamamatsu LC6) supplied via fiber optic and filtered through a band-pass filter (380-400 nm; >6 OD cutoff). Fluorescence emission of the entire 384-well plate was detected by measuring light intensity using a CCD camera (Sensys, Roper Scientific) filtered to detect 500 ± 25 nm, resulting in simultaneous and independent readings of all 384 wells. Images were collected at each temperature, and the sum of the pixel intensity in a given area of the assay plate was recorded versus temperature. Reference wells contained RORγt without compounds, and the assay conditions were as follows: • 0.065 mg/mL RORγt • 60 µM 1,8-ANS • 100 mM Hepes, pH 7.0 • 10 mM NaCl • 2.5 mM GSH • 0.002% Tween-20
Project compounds were arranged in a pre-dosed mother plate (Greiner Bio-one) wherein compounds are serially diluted in 100% DMSO by 1:2 from a high concentration of 10 mM over 12 columns within a series (column 12 is a reference well containing DMSO, no compound). The compounds were robotically dispensed directly into assay plates (1x = 46 nL) using a Hummingbird capillary liquid handling instrument (Digilab). Following compound dispense, protein and dye in buffer was added to achieve the final assay volume of 3 µL, followed by 1 µL of silicone oil.

[2] = target: T2, wild type human RORγt LBD (Homo sapiens, UniProt P51449); experiment: RORγt Reporter Assay (GAL4-RORγt LBD luciferase in HEK293T cells); format: cell-based; details: for IC50: compounds for 24 hours; for inhibition at 6 µM: HEK-293T
T2 construct: expressed in transfected cells; host or cells: HEK293T
T2 sequence (P51449 269-508 limits assumed): T1 sequence (P51449 269-508 limits assumed)
From the text: A reporter assay was used to test functional activity of RORγt modulatory compounds on transcriptional activation driven by the RORγt LBD. Cells used in the assay were co-transfected with two constructs. The first construct, pBIND-RORγt LBD, contained the wild type human RORγt LBD fused to the DNA binding domain of the GAL4 protein. The second construct, pGL4.31 (Promega Cat no. C935A), contained multiple GAL4 responsive DNA elements upstream of firefly luciferase. […] The mutant construct was called pBIND-RORγt-AF2.
The pBIND vector contains the GAL4 DNA Binding Domain (GAL4 DBD) and the renilla luciferase gene under control of the SV40 promoter. Renilla luciferase expression serves as a control for transfection efficiency and cell viability.
The reporter assay was performed by transiently transfecting HEK293T cells with 5 µg of pBIND-RORγt LBD or pBIND-RORγt LBD-AF2 and 5 µg pGL4.31 (Promega Cat no. C935A) using Fugene 6 (Invitrogen Cat no. E2691) at a 1:6 ratio of DNA: Fugene 6 in a T-75 flask in which cells were at least 80% confluent. Twenty four hours after bulk transfection, cells were plated into 96-well plates at 50,000 cells/well in phenol-red free DMEM containing 5% Lipid Reduced FCS and Pen/Strep. Six hours after plating, cells were treated with compounds for 24 hours. Media was removed and cells were lysed with 50 µL 1x Glo Lysis Buffer (Promega). Dual Glo Luciferase Reagent (50 µL/well) was then added and firefly luciferase luminescence was read on an Envision after a ten minute incubation. Finally, Stop and Glo reagent (50 µL/well) was added and renilla luciferase luminescence was read on an Envision instrument after a ten minute incubation. To calculate the effect of compounds on RORγt activity, the ratio of firefly to renilla luciferase was determined and plotted against compound concentration. Agonist compounds increase RORγt-driven luciferase expression, and antagonist or inverse agonist compounds decrease luciferase expression.

[3] = HEK293T cells, read-out: RORγt reporter Assay, IC50
[4] = read-out: RORγt reporter Assay, % inhibition @ 6 µM, @ 6 µM, HEK293T cells

Compound | Kd [1] [nM] | IC50 [2, 3] [µM] | inhibition at 6 µM [2, 4] [%] | inhibition at 6 µM ([2]; read-out: RORγt reporter Assay, % inhibition @ 6 µM) [%] | IC50 ([2]; RORγt reporter Assay, IC50 (µM), HEK293T cells) [µM]
CSc1nc2ccc(C(O)(c3sc(C)nc3C)c3cncn3C)cc2c(SC)c1-c1ccccc1 (stereo not drawn) [Example 42, (2,4-Bis(methylthio)-3-phenylquinolin-6-yl)(2,4-dimethylthiazol-5-yl)(1-methyl-1H-imidazol-5-yl)methanol•TFA] | 0.51 | 0.017 | 103 | – | –
CSc1nc2ccc(C(O)(c3sc(C)nc3C)c3cncn3C)cc2c(Cl)c1-c1ccccc1 (stereo not drawn) [Example 43, (4-Chloro-2-(methylthio)-3-phenylquinolin-6-yl)(2,4-dimethylthiazol-5-yl)(1-methyl-1H-imidazol-5-yl)methanol•TFA] | 3.5 | 0.039 | 98 | – | –
Cn1cncc1C(O)(c1ccc(Cl)cc1)c1ccc2nc(OCCN3CC3)c(-c3ccccc3)c(Cl)c2c1 (stereo not drawn) [Example 44, [2-(2-Aziridin-1-ylethoxy)-4-chloro-3-phenylquinolin-6-yl](4-chlorophenyl)(1-methyl-1H-imidazol-5-yl)methanol] | 5400 | – | – | 31 | > 6
Cn1cncc1C(O)(c1ccc(Cl)cc1)c1ccc2nc(OCC(F)(F)F)c(-c3ccccc3)c(Cl)c2c1 (stereo not drawn) [Example 45, (4-Chlorophenyl)[4-chloro-3-phenyl-2-(2,2,2-trifluoroethoxy)quinolin-6-yl](1-methyl-1H-imidazol-5-yl)methanol•TFA] | 770 | 0.57 | 93 | – | –
CN(CCO)c1nc2ccc(C(O)(c3ccc(Cl)cc3)c3cncn3C)cc2c(Cl)c1-c1ccccc1 (stereo not drawn) [Example 46, 2-[{4-Chloro-6-[(4-chlorophenyl)(hydroxy)(1-methyl-1H-imidazol-5-yl)methyl]-3-phenylquinolin-2-yl}(methyl)amino]ethanol•TFA] | 230 | 0.83 | 106 | – | –
Cc1nc(C)c(C(O)(c2ccc3nc(C#N)c(-c4ccccc4)c(C#N)c3c2)c2cnnn2C)s1 (stereo not drawn) [Example 47a, 6-((2,4-Dimethylthiazol-5-yl)(hydroxy)(1-methyl-1H-1,2,3-triazol-5-yl)methyl)-3-phenylquinoline-2,4-dicarbonitrile] | 8.3 | 0.04 | 98 | – | –
COCCOc1nc2ccc(C(O)(c3ccc(Cl)cc3)c3cncn3C)cc2c(Cl)c1-c1ccccc1 (stereo not drawn) [Example 48, [4-Chloro-2-(2-methoxyethoxy)-3-phenylquinolin-6-yl](4-chlorophenyl)(1-methyl-1H-imidazol-5-yl)methanol] | 810 | 0.67 | 103 | – | –
COCCN(C)c1nc2ccc(C(O)(c3ccc(Cl)cc3)c3cncn3C)cc2c(Cl)c1-c1ccccc1 (stereo not drawn) [Example 50, {4-Chloro-2-[(2-methoxyethyl)(methyl)amino]-3-phenylquinolin-6-yl}(4-chlorophenyl)(1-methyl-1H-imidazol-5-yl)methanol] | 90 | 0.031 | 99 | – | –
CCC(=O)NCCOc1nc2ccc(C(O)(c3ccc(Cl)cc3)c3cncn3C)cc2c(Cl)c1-c1ccccc1 (stereo not drawn) [Example 51, N-[2-({4-Chloro-6-[(4-chlorophenyl)(hydroxy)(1-methyl-1H-imidazol-5-yl)methyl]-3-phenylquinolin-2-yl}oxy)ethyl]propanamide] | 1100 | 1.1 | 96 | – | –
Cn1cncc1C(O)(c1ccc(Cl)cc1)c1ccc2nc(OCCN)c(-c3ccccc3)c(Cl)c2c1 (stereo not drawn) [Example 52, [2-(2-Aminoethoxy)4-chloro-3-phenylquinolin-6-yl](4-chlorophenyl)(1-methyl-1H-imidazol-5-yl)methanol] | 3500 | ~6 | 52 | – | –
Cn1cncc1C(O)(c1ccc(C(F)(F)F)nc1)c1ccc2nc(OCC(F)(F)F)c(-c3ccccc3)c(Cl)c2c1 (stereo not drawn) [Example 54, [4-Chloro-3-phenyl-2-(2,2,2-trifluoroethoxy)quinolin-6-yl](1-methyl-1H-imidazol-5-yl)[6-(trifluoromethyl)pyridin-3-yl]methanol] | 380 | 0.44 | 102 | – | –
